Starred links: 1 amine or outer side, 2 acyl side, 3 side chain; linkers in the order of their positions; H or OH if unused. Residues, ends and D or L forms follow the SMILES beside them. Groups on a side chain read outwards from the residue. *: point of attachment. Palmitoyl(16-(5-tetrazolyl)) = O=C(CCCCCCCCCCCCCCCc1nnn[nH]1)*; γGlu = O=C(O)[C@H](CCC(=O)[*:2])N[*:1]; AEEA = NCCOCCOCC(=O)O
How the values were obtained:
db/db mice = test: Pharmacodynamic study using db/db mice (blood glucose after subcutaneous dosing); assay type: in vivo; settings: 30 nmol/kg subcutaneous
Procedure: The efficacy and duration of action were measured after dosing of 30 nmol/kg to db/db mice. Male db/db mice were shipped from Taconic, Denmark at the age of 8-10 weeks. From the time of arrival, the mice were housed under standard conditions but at 24° C. The mice were kept 10 per cage until experimentation with free access to standard chow (Altromin, Brogaarden APS., Denmark) and tap water at a normal day: light cycle (light on at 6 am). […] After this, the mice were euthanized.
After an acclimatisation period of 1 week, the blood glucose was measured by sampling from the tail tip capillary. In brief, 5 μl blood was sampled in heparinised glass capillary tubes and immediately suspended in 250 μl EBIO buffer solution (Eppendorf, Germany) in an 1.5 ml Eppendorf tube. The blood glucose concentration was measured by the glucose oxidase method at the EBIO Plus Auto analyser (Eppendorf, Germany).
The cut of value for blood glucose was 10 mM. When evaluating the mice, it was considered essential, that all 42 mice entering the experiment had blood glucose values above 10 mM, but also that the inter-mice variance was small. Therefore, if many mice were not severely diabetic, whereas some were, the start up of experiments was postponed one week and new basal blood glucose measurements were made.
Based on the basal blood glucose values, the mice were allocated to 7 groups of n=6 with matching group mean blood glucose values.
On the day of testing the basal blood glucose morning values were assessed as described above and the basal body weight of each mouse was assessed. A time 0, the compound was dosed subcutaneously in the scruff of the neck (dosing volume app. 300 μl/50 g mouse).
The blood glucose values were followed up to 48 hours (time 1, 3, 6, 24 and 48 h) and the terminal body weight was assessed.
All data were entered into Graphpad Prism where mean blood glucose and mean delta body weights were calculated.

human GLP-1 receptor = biological target: T1, human GLP-1 receptor (Homo sapiens, UniProt P43220); test: Functional receptor assay: cAMP formation in plasma membranes of BHK cells expressing the cloned human GLP-1 receptor (GLP1cAMPma); assay type: biochemical; settings: cAMP, membranes with human GLP-1 receptor, mean value; read-out: GLP1cAMPma (3693) [EC50 (nM)] Mean Value
T1 construct: expressed in transfected cells; host or cells: BHK cells, clone BHK-467-12A; plasma membrane preparation
T1 sequence (P43220 24-463): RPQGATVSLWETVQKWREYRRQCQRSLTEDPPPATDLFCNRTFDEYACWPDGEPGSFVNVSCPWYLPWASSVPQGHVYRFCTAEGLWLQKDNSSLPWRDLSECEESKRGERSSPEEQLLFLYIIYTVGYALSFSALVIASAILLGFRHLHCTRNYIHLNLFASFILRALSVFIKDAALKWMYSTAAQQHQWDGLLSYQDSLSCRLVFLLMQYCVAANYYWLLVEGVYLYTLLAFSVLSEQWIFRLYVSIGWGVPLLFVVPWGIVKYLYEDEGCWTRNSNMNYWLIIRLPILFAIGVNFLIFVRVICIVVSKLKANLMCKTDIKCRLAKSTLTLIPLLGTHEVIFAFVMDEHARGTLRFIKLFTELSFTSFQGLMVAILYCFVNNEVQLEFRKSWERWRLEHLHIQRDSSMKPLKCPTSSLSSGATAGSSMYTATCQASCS
Procedure, shortened: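 cAMP formation was read by AlphaScreen after a 3 h room-temperature incubation of agonist with human GLP-1 receptor BHK membranes (6 μg/well). The pH 7.4 buffer held 10 mM MgCl2, 1 mM ATP, 1 μM GTP and 0.5 mM IBMX. EC50 values were estimated by four-parameter logistic regression.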

## CC[C@H](C)[C@H](NC(=O)[C@H](Cc1ccccc1)NC(=O)[C@H](CC(C)C)NC(=O)[C@H](CCCNC(=N)N)NC(=O)[C@@H](NC(=O)[C@H](C)NC(=O)[C@H](CCC(=O)O)NC(=O)[C@H](CCC(=O)O)NC(=O)[C@H](CCC(=O)O)NC(=O)[C@H](CC(C)C)NC(=O)[C@H](CCC(N)=O)NC(=O)[C@H](CCCNC(=N)N)NC(=O)[C@H](CO)NC(=O)[C@H](CC(C)C)NC(=O)[C@H](CC(=O)O)NC(=O)[C@H](CO)NC(=O)[C@@H](NC(=O)[C@H](Cc1ccccc1)NC(=O)[C@@H](NC(=O)CNC(=O)[C@H](CCC(=O)O)NC(=O)CNC(=O)[C@@H](N)Cc1c[nH]cn1)[C@@H](C)O)[C@@H](C)O)C(C)C)C(=O)N[C@@H](CCC(=O)O)C(=O)N[C@@H](Cc1c[nH]c2ccccc12)C(=O)N[C@@H](CC(C)C)C(=O)N[C@@H](CCCNC(=N)N)C(=O)N[C@@H](CC(N)=O)C(=O)NCC(=O)NCC(=O)N1CCC[C@H]1C(=O)N[C@@H](CO)C(=O)N[C@@H](CO)C(=O)N[C@@H](CCCCNC(=O)COCCOCCNC(=O)CC[C@H](NC(=O)CCCCCCCCCCCCCCCc1nnn[nH]1)C(=O)O)C(=O)N[C@@H](C)C(=O)N1CCC[C@H]1C(=O)N1CCC[C@H]1C(=O)N1CCC[C@H]1C(=O)N[C@@H](CO)C(N)=O [Example 9] (H-HGEGTFTSDLSRQLEEEAVRLFIEWLRNGGPSSK([AEEA-γGlu-Palmitoyl(16-(5-tetrazolyl))])APPPS-NH2)
db/db mice
  Delta AUC for blood glucose after 30 nmol/kg in db/db mice, 48 hours: −395 ± 222, *** mM × hour
Human GLP-1 receptor
  EC50: 0.61 nM

— patent US9012398B2, “Acylated exendin-4 compounds” (priority 2006, dated 2015)
